According to patent US10323001B2, “Compositions for modulating a kinase cascade and methods of use thereof” (Athenex, Inc., priority 2006, dated 2019):
Counter-ions that a name gives are not always drawn. Like-named read-outs stand apart in the source and are kept apart here.

Key:
[1] = Humidity chamber hygroscopicity study (salt solution chambers, visual inspection); type: physicochemical; set-up: key to Observations/Time (hr): FF—Free flowing powder; D—Complete deliquescence of sample observed; CC—Colour change of sample observed; conditions: for XRPD after humidity chamber (compared with XRPD pattern of sponsor lot) / HPLC Assay (% Area Purity) after humidity chamber: up to 120 hr; for HPLC Assay (% Area Purity) after humidity chamber: initial 99.4
Experimental: Further characterization of the hygroscopicity of the mesylate salt was performed using several humidity chambers to cover a range of humidity from 75, 88 to 95% RH. The 75, 88, and 95% RH chambers were prepared with NaCl, BaCl2.2H2O, and Na2HPO4.12 H2O respectively and were equilibrated for 48 hours prior to introducing the samples. Samples were placed into aluminum pans and monitored by visual inspection for up to five days. Table 3 summarizes the observations at 0, 3, 5, 24, 48, 72, 96 and 120 hour time points.
Moisture sorption studies conducted at ambient temperature utilizing salt solution humidity chambers were conducted to evaluate solid stability by visual inspection.

[2] = Stability studies, 2 weeks at elevated temperature and/or relative humidity; type: physicochemical; conditions: for Form After 2 Weeks (XRPD): initial Form A; for Time to deliquescence: 95% RH, mesylate
Experimental: Stability studies were performed on KX2-391.MSA obtained in accordance with the process of the present invention (Example 4) using the conditions listed in Table 4 to determine the effects of exposure to elevated temperature and/or relative humidity on the crystalline form of KX2-391.MSA, Form A. After 2 weeks, the samples were analyzed by XRPD and HPLC to determine if any form change or degradation had occurred.

[3] = Solubility in DI water and pH 2.0 phosphate buffer; type: physicochemical
Experimental: The table below summarizes additional characterization data for the fumaric and maleate KX2-391.MSA salts and compares it to free base, bis-HCl, and MSA salts described above. The results in the table below were obtained using the procedures described above in Examples 5 (XRPD), 6 (DSC), 7 (TGA), and 8 (moisture-sorption).
Solubility experiments were also performed using pH 2.0 phosphate buffer and DI water pH 6.9 and KX2-391.MSA, Form A. Each vial was filled with approximately 50 mg of KX2-391.MSA, Form A and 100 μL aliquots of the corresponding solvent was added until complete dissolution was observed, followed by stirring at room temperature for one and five days. The solids obtained were isolated by filtration, dried under vacuum at room temperature and analyzed by HPLC. The initial HPLC purity of KX2-391.MSA, Form A was 99.4 (% area). The solubility by HPLC of KX2-391.MSA, Form A in phosphate buffer/RT was >500 mg/mL and HPLC purity was measured to be 99.4. The solubility by HPLC of KX2-391.MSA, Form A in DI H2O/RT was >500 mg/mL and HPLC purity was measured to be 99.4.

[4] = 5 mg/mL DI water dissolution experiment; type: physicochemical; set-up: key to dissolution state: P—Particulates partially dissolved; D—Particulates fully dissolved; conditions: about 5 mg in 1 mL DI water, magnetic stirring
Experimental: Dissolution experiments were performed on KX2-391 salts to provide a better understanding of the salts interaction in water. This was accomplished using a 5 mg/mL DI water dissolution experiment where 5 mg of each salt was weighed into a vial and 1 mL of DI wather was added. The solution was monitored visually with magnetic stirring over a 20 minute time period to observe the time of dissolution.

[5] = Threshold solubility of salt screen 96 well plate; conditions: salt screen well: 1 Equivalent of Acid, DI water
Experimental: Following each addition, the plate was shaken to encourage mixing for at least 5 minutes prior to evaluation.

[6] = Slurry study (acetone, DI water); type: physicochemical; conditions: Acetone slurry/RT, one and five days
Experimental: Slurry experiments were performed using acetone and DI water on KX2-391.MSA, Form A. Each vial was filled with approximately 30 mg of KX2-391.MSA, Form A and 0.5 and 1 mL of corresponding solvent, followed by stirring at room temperature for one and five days. The obtained solids were isolated by filtration, dried under vacuum at room temperature, and analyzed by HPLC and XRPD. The initial purity of KX2-391.MSA was 99.4%.

[7] = 40° C./75% RH, accelerated stability chamber

Observations/Time (hr) ([1]; 75% RH (NaCl) chamber, 0 hr): FF
Observations/Time (hr) ([1]; 75% RH (NaCl) chamber, 3 hr): FF
Observations/Time (hr) ([1]; 75% RH (NaCl) chamber, 5 hr): FF
Observations/Time (hr) ([1]; 75% RH (NaCl) chamber, 24 hr): FF
Observations/Time (hr) ([1]; 75% RH (NaCl) chamber, 48 hr): FF
Observations/Time (hr) ([1]; 75% RH (NaCl) chamber, 72 hr): FF
Observations/Time (hr) ([1]; 75% RH (NaCl) chamber, 96 hr): FF
Observations/Time (hr) ([1]; 75% RH (NaCl) chamber, 120 hr): FF
XRPD after humidity chamber (compared with XRPD pattern of sponsor lot) ([1]; 75% RH (NaCl) chamber): Consistent
HPLC Assay (% Area Purity) after humidity chamber ([1]; 75% RH (NaCl) chamber): 99.4 % Area Purity
stability in humidity chamber (deliquescence, decomposition by HPLC) ([1]; 75% RH, up to five days): stable
Observations/Time (hr) ([1]; 88% RH (BaCl2•2H2O) chamber, 0 hr): FF
Observations/Time (hr) ([1]; 88% RH (BaCl2•2H2O) chamber, 3 hr): CC
Observations/Time (hr) ([1]; 88% RH (BaCl2•2H2O) chamber, 5 hr): CC
Observations/Time (hr) ([1]; 88% RH (BaCl2•2H2O) chamber, 24 hr): CC
Observations/Time (hr) ([1]; 88% RH (BaCl2•2H2O) chamber, 48 hr): CC
Observations/Time (hr) ([1]; 88% RH (BaCl2•2H2O) chamber, 72 hr): CC
Observations/Time (hr) ([1]; 88% RH (BaCl2•2H2O) chamber, 96 hr): CC
Observations/Time (hr) ([1]; 88% RH (BaCl2•2H2O) chamber, 120 hr): CC
XRPD after humidity chamber (compared with XRPD pattern of sponsor lot) ([1]; 88% RH (BaCl2•2H2O) chamber): Consistent
HPLC Assay (% Area Purity) after humidity chamber ([1]; 88% RH (BaCl2•2H2O) chamber): 89.3 % Area Purity
colour of material after exposure ([1]; 88% RH, up to five days): darker color yellow
degradation by HPLC ([1]; 88% RH, up to five days): roughly 10 % area
deliquescence on exposure to high humidity ([1]; 95% RH): deliquesce within three hours
Observations/Time (hr) ([1]; 95% RH (Na2HPO4•12H2O) chamber, 0 hr): FF
Observations/Time (hr) ([1]; 95% RH (Na2HPO4•12H2O) chamber, 3 hr): D
Observations/Time (hr) ([1]; 95% RH (Na2HPO4•12H2O) chamber, 5 hr): D
Observations/Time (hr) ([1]; 95% RH (Na2HPO4•12H2O) chamber, 24 hr): D
Observations/Time (hr) ([1]; 95% RH (Na2HPO4•12H2O) chamber, 48 hr): D
Observations/Time (hr) ([1]; 95% RH (Na2HPO4•12H2O) chamber, 72 hr): D
Observations/Time (hr) ([1]; 95% RH (Na2HPO4•12H2O) chamber, 96 hr): D
Observations/Time (hr) ([1]; 95% RH (Na2HPO4•12H2O) chamber, 120 hr): D
stability of crystalline form after exposure to the accelerated stability conditions ([2]; 2 weeks, conditions of Table 4): stable crystalline form
HPLC Purity (AUC) after 2 weeks [2, 7]: >99%
Form After 2 Weeks (XRPD) [2, 7]: Form A
HPLC Purity (AUC) after 2 weeks ([2]; 51% RH, saturated salt chamber): >99%
Form After 2 Weeks (XRPD) ([2]; 51% RH, saturated salt chamber): Form A
HPLC Purity (AUC) after 2 weeks ([2]; 60° C./ambient humidity, oven): >99%
Form After 2 Weeks (XRPD) ([2]; 60° C./ambient humidity, oven): Form A
HPLC Purity (AUC) after 2 weeks ([2]; 75% RH, saturated salt chamber): >99%
Form After 2 Weeks (XRPD) ([2]; 75% RH, saturated salt chamber): Form A
HPLC Purity (AUC) after 2 weeks ([2]; 88% RH, saturated salt chamber): >99%
Form After 2 Weeks (XRPD) ([2]; 88% RH, saturated salt chamber): Form A
Time to deliquescence ([2]; saturated salt chamber, listed as KX2-391-MSA): quesced <16 hrs
Time to deliquescence ([2]; saturated salt chamber): less than 16 hrs
pH of solubility sample [3]: 4.6
HPLC purity after solubility experiment ([3]; pH 2): 99.4 % area
Solubility mg/mL ([3]; pH 2): pH 2: >500 mg/mL
pH of solubility sample ([3]; pH 2): (4.3)
solubility ([3]; pH 2, aqueous buffer, thermodynamic from solid): > 500 mg/mL
HPLC purity after solubility experiment ([3]; pH 6.9): 99.4 % area
solubility ([3]; pH 6.9): > 500 mg/mL
solubility ([3]; pH 6.9, water, thermodynamic from solid): > 500 mg/mL
dissolution state ([4]; 0 s): P
dissolution state ([4]; 30 s): P
dissolution state ([4]; 1 min): D
Threshold solubility rank ([5]; Acetone): 1
Threshold solubility rank ([5]; Dioxane): 1
Threshold solubility rank ([5]; THF): 1
HPLC purity after slurry ([6]; initial 99.4%): 99.3%
Compound: O=C(Cc1ccc(-c2ccc(OCCN3CCOCC3)cc2)cn1)NCc1ccccc1 [KX2-391.MSA, 2-(5-(4-(2-morpholinoethoxy)phenyl)pyridine-2-yl)-N-benzylacetamide mesylate]
XRPD of solid after slurry [6]: consistent with the pattern of the initial KX2-391.MSA, Form A
